Laboratory results from the NIST ThermoML archive (doi:10.1016/j.tca.2015.01.022).

Conditions: for molar entropy: 101.33 kPa, Small (less than 1 g) adiabatic calorimetry

CCCCn1cc[n+](C)c1.F[B-](F)(F)F [1-butyl-3-methylimidazolium tetrafluoroborate]
Conditions	Glass transition temperature [°C]
Glass, Adiabatic calorimetry	-92

CCOS(=O)(=O)[O-].CCn1cc[n+](C)c1 [1-ethyl-3-methylimidazolium ethyl sulfate]
Conditions	Glass transition temperature [°C]
Glass, Adiabatic calorimetry	-88

CCCCCCCC[n+]1ccn(C)c1.F[B-](F)(F)F [1-methyl-3-octylimidazolium tetrafluoroborate]
Conditions	Glass transition temperature [°C]	Triple point temperature [K]	molar entropy [J/K/mol]
0 K, Glass	–	–	13.9
5 K, Crystal	–	–	0.507
5 K, Glass	–	–	14.5
10 K, Crystal	–	–	3.61
10 K, Glass	–	–	18
15 K, Crystal	–	–	9.69
15 K, Glass	–	–	24.5
20 K, Crystal	–	–	17.96
20 K, Glass	–	–	33.1
25 K, Crystal	–	–	27.66
25 K, Glass	–	–	43.1
30 K, Crystal	–	–	38.29
30 K, Glass	–	–	54.1
35 K, Crystal	–	–	49.44
35 K, Glass	–	–	65.5
40 K, Crystal	–	–	60.82
40 K, Glass	–	–	77.1
45 K, Crystal	–	–	72.28
45 K, Glass	–	–	88.7
50 K, Crystal	–	–	83.73
50 K, Glass	–	–	100.3
60 K, Crystal	–	–	106.3
60 K, Glass	–	–	123.1
70 K, Crystal	–	–	128.1
70 K, Glass	–	–	145.2
80 K, Crystal	–	–	149.2
80 K, Glass	–	–	166.7
90 K, Crystal	–	–	169.5
90 K, Glass	–	–	187.6
100 K, Crystal	–	–	189.1
100 K, Glass	–	–	207.9
110 K, Crystal	–	–	208
110 K, Glass	–	–	227.7
120 K, Crystal	–	–	226.3
120 K, Glass	–	–	247
130 K, Crystal	–	–	244.2
130 K, Glass	–	–	265.9
140 K, Crystal	–	–	261.5
140 K, Glass	–	–	284.4
150 K, Crystal	–	–	278.4
150 K, Glass	–	–	302.8
160 K, Crystal	–	–	295
160 K, Glass	–	–	320.9
170 K, Crystal	–	–	311.3
170 K, Glass	–	–	338.9
180 K, Crystal	–	–	327.5
180 K, Glass	–	–	356.9
190 K, Crystal	–	–	343.6
190 K, Glass	–	–	375.5
200 K, Crystal	–	–	359.6
200 K, Liquid	–	–	398.7
210 K, Crystal	–	–	375.6
210 K, Liquid	–	–	421.4
220 K, Crystal	–	–	391.5
220 K, Liquid	–	–	442.9
230 K, Crystal	–	–	407.4
230 K, Liquid	–	–	463.6
240 K, Crystal	–	–	423.2
240 K, Liquid	–	–	483.5
245.81 K, Crystal	–	–	432.4
245.81 K, Liquid	–	–	494.7
250 K, Liquid	–	–	502.7
260 K, Liquid	–	–	521.3
270 K, Liquid	–	–	539.4
280 K, Liquid	–	–	557
290 K, Liquid	–	–	574.3
298.15 K, Liquid	–	–	588
300 K, Liquid	–	–	591.1
310 K, Liquid	–	–	607.5
320 K, Liquid	–	–	623.7
330 K, Liquid	–	–	639.5
340 K, Liquid	–	–	655
350 K, Liquid	–	–	670.3
360 K, Liquid	–	–	685.3
370 K, Liquid	–	–	700.1
Crystal, Adiabatic calorimetry	–	245.81	–
Glass, Adiabatic calorimetry	-83	–	–
